Data: paper PMC6027433, “Synthesis, Evaluation of Cytotoxicity and Molecular Docking Studies of the 7-Acetamido Substituted 2-Aryl-5-bromo-3-trifluoroacetylindoles as Potential Inhibitors of Tubulin Polymerization” (Pharmaceuticals, 2018)

Assays:
[1] = system: cervical cancer (HeLa) cells; test: MTT dose response cytotoxicity, HeLa; assay type: cell-based; conditions: Homo sapiens, 48 h
Method: (§1) Cells were seeded as described in above. […] The medium was aspirated and replaced with 200 μL fresh medium containing the dilution of the respective test compound. The test sample were added to each well and the plates were incubated for a further 48 h at 37 °C under 5% CO2 atmosphere in a humidified incubator. After this incubation period, the medium was removed and then replaced with 100 μL fresh culture medium containing MTT at a final concentration of 0.5 mg/mL. The 96-well plates were returned to the incubator and incubated for an additional 3 h. The medium was removed and the MTT crystals were solubilized in 100 μL DMSO and the absorbance was measured at 560 nm using a Labsystems Multiwell Scanning spectrophotometer (Thermo Fischer Scientific, Edenvale, South Africa).
(§2) Quantification of live and dead cells for the screening assay was performed using the ImageXpress Micro XLS Widefield Microscope and acquired images analysed using the MetaXpress software and Multi-Wavelength Cell Scoring Application Module. Acquired data was transferred to an EXCEL spreadsheet and relative cell viability was determined using quadruplicate wells for each concentration. Untreated cells were considered to have 100% cell viability (i.e., the mean OD of the untreated wells = 100% viability). Cell viabilities in other test wells were calculated relative to the untreated control and expressed as a percentage. Dose response analysis was performed using the statistical software GraphPad Prism and IC50 values calculated from the concentration-response data using a mathematical Hill function.

[2] = system: lung cancer (A549) cells; test: MTT dose response cytotoxicity, A549; assay type: cell-based; conditions: Homo sapiens, 48 h
Method: as §1, §2

[3] = system: A549 cancer cells; test: Two-concentration cytotoxicity screen (Hoechst 33342/PI imaging), A549; assay type: cell-based; conditions: 10 μM and 100 μM, 48 h
Method: (§3) The HeLa and A549 cancer cells were initially exposed to two concentrations of each test compound (10 μM and 100 μM) for 48 h with a well-known chemotherapeutic drug, Melphalan, used as a reference standard at the same concentrations (Table 2 and Table 3). Acquisition was performed using the ImageXpress Micro XLS Widefield Microscope and the acquired images were analyzed using the MetaXpress software and Multi-Wavelength Cell Scoring Application Module (see Figure S2 in the Supplementary Information for cell viability percentages for each compound). The structure activity relationship (SAR) of these compounds has been evaluated with respect to the substitution patterns on the 2-phenyl ring, C-3 and C-7 positions.
(§4) The human cervical cancer cell line, HeLa, and lung cancer cell line, A549 were used for the screening assay. HeLa cells were grown and maintained in RPMI 1640 medium supplemented with 10% fetal bovine serum (FBS) and A549 cells were grown and maintained in EMEM supplemented with 10% FBS and 10% non-essential amino acids. In the case of screening experiments, the cells were seeded into 96 well microtiter plates at a density of 6000 cells/well to a total volume of 200 μL per well. The microtiter plates were incubated at 37 °C, 5% CO2, and 100% relative humidity for 24 h to allow for cell attachment. Each of the test compounds was first reconstituted in DMSO at a concentration of 40 mM and then stored at 4 °C prior to use and final dilution to working concentrations with culture complete medium on the day of treatment. Two hundred microliters aliquots of the diluted compound in fresh medium was used to treat cells after aspiration of seeding medium. Each of the cell lines was incubated for 48 h at 37 °C in a humidified incubator under 5% CO2 atmosphere. Treatment medium was aspirated from all wells and replaced with 100 μL of Hoechst 33342 nuclear dye (5 μg/mL) and incubated for 10 min at room temperature. Thereafter, cells were stained with propidium iodide (PI) at 100 μg/mL in order to enumerate the proportion of dead cells within the population. […]
as §2, with “Untreated cells were considered to have 100% cell viability (i.e., the mean OD of the untreated wells = 100% viability).” left out

[4] = system: HeLa cancer cells; test: Two-concentration cytotoxicity screen (Hoechst 33342/PI imaging), HeLa; assay type: cell-based; conditions: 10 μM and 100 μM, 48 h
Method: as §3, §4
as §2, with “Untreated cells were considered to have 100% cell viability (i.e., the mean OD of the untreated wells = 100% viability).” left out

[5] = system: A549 cells; test: Caspase 8 and 3 activation (immunochemical), A549; assay type: cell-based, human; conditions: 24 h exposure at IC50 values
Method: (§5) Several distinctive mechanisms of cancer cell death such as apoptosis, necrosis, autophagy and cornification have been identified, and these are characterized by differences in morphology and biochemical changes. A major biochemical feature of apoptosis is the activation of caspases, which plays a central role in the morphological changes associated with apoptosis. Caspase activation was determined using immunochemical methods and the antibodies against activated caspase 8 and caspase 3. […] Activated caspase 8 can be used as a convenient indicator of involvement of the extrinsic death receptor pathway of apoptosis. Executioner caspases including caspase 3 are, in turn, activated by the initiator caspases. This protein is either partially or totally responsible for the cleavage of many key proteins such as PARP, DNA protein kinases and retinoblastoma protein [25]. […] This was true for both activated caspase 8 and 3. A more distinct increase was evident with caspase 3 albeit less pronounced than that of 4c and the increase was expected as caspase 3 is activated by initiator caspase including caspase 8, which is a later event in apoptosis. […] Prolonged treatment of the cells with compounds 5e–h for 48 h or more, for example, would probably result in significant effects. We also evaluated compound 5g for potential to induce other key apoptotic biochemical features such as phosphatidylserine (PS) translocation, cell cycle arrest and mitochondrial membrane depolarization.
(§6) Compounds 4c and 5g were selected for mechanism studies and these test compounds were reconstituted in dimethyl sulphoxide (DMSO) to give a final concentration of 40 mM. Samples were stored at 4 °C until required. […]
(§7) Quantification of live and dead cells for the assay was performed using the ImageXpress Micro XLS Widefield Microscope and acquired images analysed using the MetaXpress software and Multi-Wavelength Cell Scoring Application Module and the Cell Cycle Module. Acquired data was transferred to an EXCEL spreadsheet and data was analysed and processed.

[6] = system: HeLa cells; test: Caspase 8 and 3 activation (immunochemical), HeLa; assay type: cell-based, human; conditions: 24 h exposure at IC50 values
Method: as §5, §6, §7

[7] = system: neurotesin receptor type 2 (NTS2); design: method as in PMID 25157640; conditions: cited from earlier work

SMILES: COc1ccc(-c2cc3cc(Br)cc(C(C)=O)c3[nH]2)cc1 [Compound 2d, 1-[5-Bromo-2-(4-methoxyphenyl)-1H-indol-7-yl]ethanone]
- IC50 [1]: > 200 µM
- melting point: 140 to 142 °C
- IC50 [2]: > 200 µM

SMILES: COc1ccc(-c2[nH]c3c(C(C)=O)cc(Br)cc3c2C(=O)C(F)(F)F)cc1 [Compound 5d, 1-[7-Acetyl-5-bromo-2-(4-methoxyphenyl)-1H-indol-3-yl]-2,2,2-trifluoroethanone]
- IC50 [1]: > 200 µM
- melting point: 170 to 173 °C
- IC50 [2]: > 200 µM

SMILES: COc1ccc(-c2cc3cc(Br)cc(NC(C)=O)c3[nH]2)cc1 [Compound 4d, N-[5-Bromo-2-(4-methoxyphenyl)-1H-indol-7-yl]acetamide]
- IC50 [1]: 125 ± 0.88 µM
- Cytotoxicity (percentage live cells compared to untreated control) [3]: modest cytotoxicity
- Cytotoxicity (percentage live cells compared to untreated control) [4]: modest cytotoxicity
- IC50 [2]: 146.8 ± 1 µM

SMILES: COc1ccc(-c2[nH]c3c(NC(C)=O)cc(Br)cc3c2C(=O)C(F)(F)F)cc1 [Compound 5h, N-[5-Bromo-2-(4-methoxyphenyl)-3-trifluoroacetyl-1H-indol-7-yl]acetamide]
- IC50 [1]: 10.7 ± 1.03 µM
- melting point: 179 to 182 °C
- IC50 [2]: 3.26 ± 0.51 µM

SMILES: CC(=O)c1cc(Br)cc2c(C(=O)C(F)(F)F)c(-c3ccc(F)cc3)[nH]c12 [Compound 5b, 1-[7-Acetyl-5-bromo-2-(4-fluorophenyl)-1H-indol-3-yl]-2,2,2-trifluoroethanone]
- IC50 [1]: > 200 µM
- melting point: 168 to 171 °C
- IC50 [2]: > 200 µM

SMILES: CC(=O)Nc1cc(Br)cc2cc(-c3ccc(F)cc3)[nH]c12 [Compound 4b, N-[5-Bromo-2-(4-fluorophenyl)-1H-indol-7-yl]acetamide]
- IC50 [1]: 122.4 ± 1.02 µM
- Cytotoxicity (percentage live cells compared to untreated control) [3]: modest cytotoxicity
- Cytotoxicity (percentage live cells compared to untreated control) [4]: modest cytotoxicity
- IC50 [2]: 116.2 ± 0.78 µM

SMILES: CC(=O)c1cc(Br)cc2cc(-c3ccccc3)[nH]c12 [Compound 2a, 1-(5-Bromo-2-phenyl-1H-indol-7-yl)ethanone]
- IC50 [1]: > 200 µM
- melting point: 139 to 142 °C
- IC50 [2]: > 200 µM

SMILES: N[C@@H](Cc1ccc(N(CCCl)CCCl)cc1)C(=O)O [Melphalan, reference compound]
- Caspase 8 and 3 activation (% change in mean integrated fluorescence intensity of the untreated control) [5]: clear increases
- IC50 [1]: 37.16 ± 0.22 µM
- Caspase 8 and 3 activation (% change in mean integrated fluorescence intensity of the untreated control) [6]: clear increases
- IC50 [2]: 30.7 ± 0.76 µM

SMILES: CC(=O)c1cc(Br)cc2c(C(=O)C(F)(F)F)c(-c3cccc(Cl)c3)[nH]c12 [Compound 5c, 1-[7-Acetyl-5-bromo-2-(3-chlorophenyl)-1H-indol-3-yl]-2,2,2-trifluoroethanone]
- IC50 [1]: > 200 µM
- melting point: 138 to 141 °C
- IC50 [2]: > 200 µM

SMILES: Cc1ccc(S(=O)(=O)Nc2ccc3c(c2)c(C(=O)C(F)(F)F)cn3CC(=O)N[C@@H](CC(C)C)C(=O)O)cc1 [NTRC-824, N-[(5-{[(4-methylphenyl)sulfonyl]amino}-3-(trifluoroacetyl)-1H-indol-1-yl)acetyl]-L-leucine]
- fold more active than the expected C-3 unsubstituted analogue ([7]; NTS2): 90 fold
- IC50 [7]: 0.038 µM

SMILES: CC(=O)c1cc(Br)cc2c(C(=O)C(F)(F)F)c(-c3ccccc3)[nH]c12 [Compound 5a, 1-(7-Acetyl-5-bromo-2-phenyl-1H-indol-3-yl)-2,2,2-trifluoroethanone]
- IC50 [1]: > 200 µM
- melting point: 175 to 176 °C
- IC50 [2]: > 200 µM

SMILES: CC(=O)Nc1cc(Br)cc2cc(-c3cccc(Cl)c3)[nH]c12 [Compound 4c, N-(5-Bromo-2-(3-chlorophenyl)-1H-indol-7-yl)acetamide]
- Caspase 8 and 3 activation (% change in mean integrated fluorescence intensity of the untreated control) [5]: clear increases
- IC50 [1]: 126.9 ± 1 µM
- Cytotoxicity (percentage live cells compared to untreated control) [3]: modest cytotoxicity
- Caspase 8 and 3 activation (% change in mean integrated fluorescence intensity of the untreated control) [6]: clear increases
- Cytotoxicity (percentage live cells compared to untreated control) [4]: modest cytotoxicity
- IC50 [2]: 154.6 ± 0.9 µM

SMILES: CC(=O)c1cc(Br)cc2cc(-c3cccc(Cl)c3)[nH]c12 [Compound 2c, 1-[5-Bromo-2-(3-chlorophenyl)-1H-indol-7-yl]ethanone]
- IC50 [1]: > 200 µM
- melting point: 140 to 143 °C
- IC50 [2]: > 200 µM

SMILES: CC(=O)Nc1cc(Br)cc2c(C(=O)C(F)(F)F)c(-c3ccc(F)cc3)[nH]c12 [Compound 5f, N-[5-Bromo-2-(4-fluorophenyl)-3-trifluoroacetyl-1H-indol-7-yl]acetamide]
- IC50 [1]: 7.95 ± 0.9 µM
- melting point: 195 to 197 °C
- IC50 [2]: 5.03 ± 0.71 µM

SMILES: CC(=O)c1cc(Br)cc2cc(-c3ccc(F)cc3)[nH]c12 [Compound 2b, 1-[5-Bromo-2-(4-fluorophenyl)-1H-indol-7-yl]ethanone]
- IC50 [1]: > 200 µM
- melting point: 171 to 173 °C
- IC50 [2]: > 200 µM

SMILES: CC(=O)Nc1cc(Br)cc2cc(-c3ccccc3)[nH]c12 [Compound 4a, N-(5-Bromo-2-phenyl-1H-indol-7-yl)acetamide]
- IC50 [1]: > 200 µM
- Cytotoxicity (percentage live cells compared to untreated control) [3]: Lack of cytotoxicity
- Cytotoxicity (percentage live cells compared to untreated control) [4]: Lack of cytotoxicity
- IC50 [2]: > 200 µM

SMILES: CC(=O)Nc1cc(Br)cc2c(C(=O)C(F)(F)F)c(-c3ccccc3)[nH]c12 [Compound 5e, N-[5-Bromo-2-phenyl-3-trifluoroacetyl-1H-indol-7-yl]acetamide]
- IC50 [1]: 12.9 ± 1.11 µM
- melting point: 141 to 144 °C
- IC50 [2]: 9.94 ± 0.99 µM
